≈ marks a conversion by molar mass, not a printed value.
Columns and labels:
[1] = Cytotoxicity against mouse EAC cells; type: functional; details: Ehrlich, read-out: ED50 (the source's name)
[2] = Toxicity against mouse; type: organism-based; details: in vivo

SMILES	EC50 [1]	LD50 [2]
Oc1c(Br)c(Br)cc2c1Oc1cc(Br)cc(Br)c1O2 [SPONGIADIOXIN B]	15.5 µg/mL (≈ 30.1 µM)	> 150 mg/kg
Oc1cc(Br)c(Br)c2c1Oc1cc(Br)cc(Br)c1O2 [SPONGIADIOXIN A]	29 µg/mL (≈ 56.2 µM)	> 150 mg/kg

Source: ChEMBL document CHEMBL1155714, “Spongiadioxins A and B, two new polybrominated dibenzo-p-dioxins from an Australian marine sponge Dysidea dendyi” (J Nat Prod, 2001)
